Assay results as given in patent publication US20110136787A1, “DIPHENYL AZEPANE, DIAZEPANE AND OXAZEPANE DERIVATIVES AND USES THEREOF” (priority 2009, published 2011).

Tests used:
[1] = biological target: T1, Human Norepinephrine Transporter (hNET) (Homo sapiens, UniProt P23975); test: hNET scintillation proximity assay (SPA), competition with [3H]-Nisoxetine; format: binding; details: pKi, membranes of HEK-293 cells expressing recombinant hNET, read-out: NET (converted)
T1 construct: expressed in transfected cells; host or cells: HEK-293 (Clone: HEK-hNET #2), membrane preparation
Description: Screening for compounds active at Human Norepinephrine Transporter (hNET) Using a Scintillation Proximity Assay (SPA)
This assay was used to determine the affinity of ligands for the hNET transporter by competition with [^3H]-Nisoxetine. As in the hSERT assay of the above example, receptor-containing membranes were pre-coupled to the SPA beads and the binding of the appropriate radioligand to the transporter was measured. The light emission was proportional to the amount of bound radioligand, with unbound radioligand producing no signal.
(§1) HEK-293 cells (Tatsumi et al., Eur. J. Pharmacol. 1997, 30, 249-258) stably expressing recombinant hNET (Clone: HEK-hNET #2) were maintained with media (DMEM hi glucose with 10% FBS, 300 ug/ml G418 and 2 mM L-Glutamine) and incubated at 37° C. with 5% CO2. Cells were released from culture flasks using PBS for 1-2 minutes. The cells were subsequently centrifuged at 1000 g′ s for 5 minutes and resuspended in PBS prior to being used in the membrane preparation.
(§2) Cell membranes were prepared using a membrane preparation buffer of 50 mM TRIS (pH 7.4). Cell membranes were prepared from a single cube (7.5×10^9 cells total). Cells were homogenized using a Polytron (setting medium for a 4 second burst). The homogenate was then centrifuged at 48,000×g for 15 minutes, the supernatant subsequently removed and discarded, and the pellet resuspended with fresh buffer. After a second centrifugation, the pellet was re-homogenized and brought to a final volume determined during the assay. Typically, membrane portions were aliquoted in 3-6 mg/ml (w:v). and stored at −80° C.
^3[H] Nisoxetine radioligand (Amersham Cat. # TRK942 or Perkin Elmer Cat. # NET1084, specific activity: 70-87 Ci/mmol, stock concentration: 1.22e-5 M, final concentration: 8.25e-9 M), and 50 mM Tris-HCl, 300 mM NaCl, (pH 7.4) buffers were used for Scintillation Proximity Assay IC50/Ki determination. Compounds of the invention were diluted from 10 mM to 0.1 nM FAC (10 point curves, whole log/half log dilutions) via a Beckman Biomek 2000 using a serial dilution protocol. The test compounds were then transferred (20 ul/well) and the radioligand was added at 50 ul/well. Membrane and beads were prepared to a ratio of […], with 0.7 mg PVT-WGA Amersham beads (Cat# RPQ0282V) added per well. […] of the membrane: bead mixture was added to the assay plate. The mixtures were allowed to stand at room temperature for one hour, and were then counted on a Packard TopCount LCS, a generic SPA counting protocol settings (Energy Range: Low, Efficiency Mode: Normal, Region A: 1.50-35.00, Region B: 1.50-256.00, Count Time (min.): 0.40, Background Subtract: none, Half-Life Correction: no, Quench Indicator: tSIS, Platemap blank subtraction: No, Cross talk reduction: Off).
(§3) The % inhibition was calculated for each compound tested [(Compound CPM at maximum concentration-Non-Specific CPM)/Total CPM*100]. The concentration producing 50% inhibition (IC50) was determined using an iterative non-linear curve fitting technique with Activity Base/Xlfit using the following equation:
(§4) where max=total binding, min=non specific binding, x=concentration (M) of the tested compound and n=Hill slope. The inhibition dissociation constant (Ki) of each compound was determined according to the method of Cheng-Prusoff and then converted into negative logarithm (pKi) of the Ki.

[2] = biological target: T2, Human Serotonin Transporter (hSERT) (Homo sapiens, UniProt P31645); test: hSERT scintillation proximity assay (SPA), competition with [3H]-Citalopram; format: binding; details: pKi, membranes of HEK-293 cells expressing recombinant hSERT, read-out: SERT (converted)
T2 construct: expressed in transfected cells; host or cells: HEK-293, membrane preparation
Excerpt: Screening for Human Serotonin Transporter (hSERT) Antagonists Using a Scintillation Proximity Assay (SPA)
The screening assay of this example was used to determine the affinity of ligands at the hSERT transporter by competition with [^3H]-Citalopram.
Scintillation Proximity Assay (SPA) works by bringing radioligand within close proximity to the bead's scintillant to stimulate light emission. In this assay, the receptor-containing membranes were pre-coupled to the SPA beads and the binding of the appropriate radioligand to the transporter was measured. The light emission was proportional to the amount of bound radioligand. Unbound radioligand produced no signal as a result of distant proximity to scintillant (lack of energy transfer).
as §1, with “recombinant hSERT” for “recombinant hNET (Clone: HEK-hNET #2)”, “(DMEM high” for “(DMEM hi”, “Cells are” for “Cells were”
as §2, with “3” for “3-6”
For Scintillation Proximity Assay IC50/Ki determination, 50 mM Tris-HCl and 300 mM NaCl, (pH 7.4) buffers were utilized. Compounds of the invention were diluted from 10 mM to 0.1 nM FAC (10 point curves, whole log/half log dilutions) via a Beckman Biomek 2000 using a serial dilution protocol. The test compounds were then transferred (20 ul/well) and the [^3H]-Citalopram radioligand was added at 50 ul/well. Membrane and beads were prepared to a ratio of 10 ug:0.7 mg, with 0.7 mg PVT-WGA Amersham beads (Cat# RPQ0282V) added per well. 130 ul of the membrane: bead mixture was added to the assay plate. The mixtures were allowed to stand at room temperature for one hour, and were then counted on a Packard TopCount LCS, a generic Scintillation Proximity Assay counting protocol settings (Energy Range: Low, Efficiency Mode: Normal, Region A: 1.50-35.00, Region B: 1.50-256.00, Count Time (min.): 0.40, Background Subtract: none, Half-Life Correction: no, Quench Indicator: tSIS, Platemap blank subtraction: No, Cross talk reduction: Off).
as §3, with “[(Compound counts per minute (CPM)” for “[(Compound CPM”
as §4

T2 sequence (P31645 whole entry): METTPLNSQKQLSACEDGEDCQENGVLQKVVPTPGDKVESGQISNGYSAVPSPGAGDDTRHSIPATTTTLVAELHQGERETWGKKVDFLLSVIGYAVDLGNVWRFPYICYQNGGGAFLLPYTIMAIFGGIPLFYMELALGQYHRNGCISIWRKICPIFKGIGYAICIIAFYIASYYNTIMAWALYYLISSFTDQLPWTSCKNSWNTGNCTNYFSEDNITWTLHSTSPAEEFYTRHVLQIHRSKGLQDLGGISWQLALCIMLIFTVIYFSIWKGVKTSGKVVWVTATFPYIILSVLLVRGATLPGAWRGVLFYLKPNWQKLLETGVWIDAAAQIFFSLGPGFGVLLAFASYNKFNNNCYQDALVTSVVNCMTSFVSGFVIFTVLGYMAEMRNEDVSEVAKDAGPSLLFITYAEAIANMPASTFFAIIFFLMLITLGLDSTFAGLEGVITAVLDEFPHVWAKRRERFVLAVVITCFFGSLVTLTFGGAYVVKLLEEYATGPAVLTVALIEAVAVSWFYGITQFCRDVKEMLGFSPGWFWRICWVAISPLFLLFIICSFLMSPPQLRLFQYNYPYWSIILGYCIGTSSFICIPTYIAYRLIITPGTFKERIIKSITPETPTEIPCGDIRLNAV
T1 sequence (P23975 whole entry): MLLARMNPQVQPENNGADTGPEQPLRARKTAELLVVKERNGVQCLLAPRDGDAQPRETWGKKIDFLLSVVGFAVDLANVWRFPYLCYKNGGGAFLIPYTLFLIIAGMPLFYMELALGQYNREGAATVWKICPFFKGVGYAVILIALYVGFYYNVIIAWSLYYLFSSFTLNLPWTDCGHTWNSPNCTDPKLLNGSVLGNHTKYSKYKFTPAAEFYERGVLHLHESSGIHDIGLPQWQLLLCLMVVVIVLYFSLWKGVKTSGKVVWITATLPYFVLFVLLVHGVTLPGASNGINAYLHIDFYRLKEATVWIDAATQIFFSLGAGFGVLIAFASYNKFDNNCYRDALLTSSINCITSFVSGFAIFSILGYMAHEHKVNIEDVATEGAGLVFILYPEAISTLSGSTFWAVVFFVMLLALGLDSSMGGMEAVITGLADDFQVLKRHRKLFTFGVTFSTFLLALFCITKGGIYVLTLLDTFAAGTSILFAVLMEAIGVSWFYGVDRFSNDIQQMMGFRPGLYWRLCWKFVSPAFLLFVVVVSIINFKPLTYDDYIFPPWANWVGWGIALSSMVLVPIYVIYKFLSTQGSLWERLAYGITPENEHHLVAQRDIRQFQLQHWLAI

SMILES | Ki [1] [nM] | Ki [2] [nM]
Fc1ccc(C2CNCCCN2c2ccccc2)cc1 (centres unmarked) [Compound 24, 2-(4-Fluoro-phenyl)-1-phenyl-[1,4]diazepane] | 214 | 
COc1ccc([C@@H]2OCCNC[C@@H]2c2ccccc2)cc1 [Compound 8, (6S,7R)-7-(4-Methoxy-phenyl)-6-phenyl-[1,4]oxazepane] |  | 34.7
COc1ccc(C2CNCCCN2c2ccccc2)cc1 (centres unmarked) [Compound 14, 2-(4-Methoxy-phenyl)-1-phenyl-[1,4]diazepane] |  | 164
COc1ccccc1C1CNCCCN1c1ccccc1 (centres unmarked) [Compound 18, 2-(2-Methoxy-phenyl)-1-phenyl-[1,4]diazepane] | 2040 | 1100
Clc1ccccc1C1CNCCCN1c1ccccc1 (centres unmarked) [Compound 20, 2-(2-Chloro-phenyl)-1-phenyl-[1,4]diazepane] |  | 394
Fc1ccc([C@@H]2OCCNC[C@@H]2c2ccccc2)cc1 [Compound 10, (6S,7R)-7-(4-Fluoro-phenyl)-6-phenyl-[1,4]oxazepane] | 432 | 234
Clc1ccccc1C1CCNCCN1c1ccccc1 (centres unmarked) [Compound 19, 7-(2-Chloro-phenyl)-1-phenyl-[1,4]diazepane] | 219 | 73.3
COc1ccc(C2CCNCCN2c2ccccc2)cc1 (centres unmarked) [Compound 13, 7-(4-Methoxy-phenyl)-1-phenyl-[1,4]diazepane] | 676 | 105
c1ccc(C2CNCCCN2c2ccccc2)cc1 (centres unmarked) [Compound 11, 1,2-Diphenyl-[1,4]diazepane] | 282 | 785
Fc1ccccc1[C@@H]1OCCNC[C@@H]1c1ccccc1 [Compound 9, (6S,7R)-7-(2-Fluoro-phenyl)-6-phenyl-[1,4]oxazepane] | 275 | 398
c1ccc([C@H]2CCNCC[C@@H]2c2ccccc2)cc1 [Compound 4, (4S,5S)-4,5-Diphenyl-azepane] | 741 | 468
Clc1ccc(C2CCNCCN2c2ccccc2)cc1 (centres unmarked) [Compound 15, 7-(4-Chloro-phenyl)-1-phenyl-[1,4]diazepane] | 229 | 407
c1ccc([C@H]2CCNCC[C@H]2c2ccccc2)cc1 [Compound 1, (4S,5R)-4,5-Diphenyl-azepane] | 124 | 9.33
c1ccc([C@H]2CNCCO[C@@H]2c2ccccc2)cc1 [Compound 5, (6S,7S)-6,7-Diphenyl-[1,4]oxazepane] | 133 | 684
c1ccc([C@H]2CNCCO[C@H]2c2ccccc2)cc1 [Compound 6, (6S,7R)-6,7-Diphenyl-[1,4]oxazepane] | 417 | 
Fc1ccc(C2CCNCCN2c2ccccc2)cc1 (centres unmarked) [Compound 23, 7-(4-Fluoro-phenyl)-1-phenyl-[1,4]diazepane] |  | 3630
c1ccc(C2CCNCCN2c2ccccc2)cc1 (centres unmarked) [Compound 12, 1,7-Diphenyl-[1,4]diazepane] | 335 | 407
COc1ccccc1[C@H]1CCNCC[C@H]1c1ccccc1 [Compound 2, (4S,5R)-4-(2-Methoxy-phenyl)-5-phenyl-azepane] | 30.9 | 3.98
Clc1ccc(C2CNCCCN2c2ccccc2)cc1 (centres unmarked) [Compound 16, 2-(4-Chloro-phenyl)-1-phenyl-[1,4]diazepane] | 263 | 339
c1ccc([C@H]2CCCNC[C@@H]2c2ccccc2)cc1 [Compound 3, (3S,4S)-3,4-Diphenyl-azepane] | 77.2 | 226
COc1ccccc1[C@@H]1OCCNC[C@@H]1c1ccccc1 [Compound 7, (6S,7R)-7-(2-Methoxy-phenyl)-6-phenyl-[1,4]oxazepane] | 106 | 398
COc1ccccc1C1CCNCCN1c1ccccc1 (centres unmarked) [Compound 17, 7-(2-Methoxy-phenyl)-1-phenyl-[1,4]diazepane] | 422 | 170
